Assay results published in US20140135310A1, “SULPHONAMIDE DERIVATIVES OF ALICYCLIC AMINES FOR THE TREATMENT OF CENTRAL NERVOUS SYSTEM DISEASES” (Adamed Sp. z o.o., priority 2011, published 2014).

What was measured:
[1] = biological target: dopaminergic receptors D2 (Homo sapiens, UniProt P14416); experiment: Radioligand binding assay, dopaminergic D2 receptors; details: for inhibition at 1 µM / D2 [%]: binding assay, test compound 1×10^−6 M; for Ki: read-out: Inhibition constants Ki for D2 receptors, D2
How it was run: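 Values derive from competition curves: percent inhibition of control specific binding was fitted by Hill non-linear regression for IC50, and Ki calculated with Cheng–Prusoff from radioligand concentration and KD (Scatchard). Bound ligand was detected by scintillation counting.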

α2C adrenergic receptors = biological target: T1, α2C adrenergic receptors (Homo sapiens, UniProt P18825); experiment: Radioligand binding assay, adrenergic α2C receptors; details: test compound 1×10^−6 M
T1 construct: expressed in transfected cells; host or cells: CHO cells
T1 sequence (P18825 1-462): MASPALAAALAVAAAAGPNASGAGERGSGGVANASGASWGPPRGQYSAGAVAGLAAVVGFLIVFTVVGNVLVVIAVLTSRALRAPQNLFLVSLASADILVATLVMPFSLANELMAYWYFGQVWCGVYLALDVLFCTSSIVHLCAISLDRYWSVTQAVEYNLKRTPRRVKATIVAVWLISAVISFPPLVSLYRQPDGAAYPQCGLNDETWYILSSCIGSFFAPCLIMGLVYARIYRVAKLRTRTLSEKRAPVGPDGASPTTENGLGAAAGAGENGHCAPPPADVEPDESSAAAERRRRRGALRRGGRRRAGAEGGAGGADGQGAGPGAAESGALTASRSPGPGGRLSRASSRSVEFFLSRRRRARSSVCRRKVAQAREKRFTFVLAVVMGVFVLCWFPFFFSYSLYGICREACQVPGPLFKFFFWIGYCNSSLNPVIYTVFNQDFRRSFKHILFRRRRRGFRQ
Excerpt: (§1) The specific ligand binding to the receptors is defined as the difference between the total binding and the non-specific binding determined in the presence of the excess of unlabelled ligand.
(§2) The results are expressed as a percent of control specific binding ((measured specific binding/control specific binding)×100) and as a percent inhibition of control specific binding (100−((measured specific binding/control specific binding)×100)) obtained in the presence of the test compounds. The specific ligand binding to the receptors is defined as the difference between the total binding and the nonspecific binding determined in the presence of an excess of unlabelled ligand. Scintillation counting was the method of detection of ligand binding. The IC50 values (concentration causing a half-maximal inhibition of control specific binding) were determined by non-linear regression analysis of the competition curves generated with mean replicate values using Hill equation curve fitting (Y=D+[(A−D)/(1+(C/C50)nH)], where Y=specific binding, D=minimum specific binding, A=maximum specific binding, C=compound concentration, C50=IC50, and nH=slope factor). This analysis was performed using a software developed at Cerep (Hill software) and validated by comparison with data generated by the commercial software SigmaPlot® 4.0 for Windows® (© 1997 by SPSS Inc.). The inhibition constants (Ki) were calculated using the Cheng Prusoff equation (Ki=IC50/(1+(L/KD)), where L=concentration of radioligand in the assay, and KD=affinity of the radioligand for the receptor). A scatchard plot was used to determine the Kd.
Experimental conditions for tests are given in Table 7, and results of tests for representative compounds are given in Tables 8 (α1 receptors) and in Tables 9 (α2C receptors).

5-HT2C receptor = biological target: T2, 5-HT2C receptor (Homo sapiens, UniProt P28335); experiment: Radioligand binding assay, serotoninergic 5-HT2C receptors; details: test compound 1×10^−6 M
T2 construct: expressed in transfected cells; host or cells: HEK-293 cells
T2 sequence (P28335 33-458): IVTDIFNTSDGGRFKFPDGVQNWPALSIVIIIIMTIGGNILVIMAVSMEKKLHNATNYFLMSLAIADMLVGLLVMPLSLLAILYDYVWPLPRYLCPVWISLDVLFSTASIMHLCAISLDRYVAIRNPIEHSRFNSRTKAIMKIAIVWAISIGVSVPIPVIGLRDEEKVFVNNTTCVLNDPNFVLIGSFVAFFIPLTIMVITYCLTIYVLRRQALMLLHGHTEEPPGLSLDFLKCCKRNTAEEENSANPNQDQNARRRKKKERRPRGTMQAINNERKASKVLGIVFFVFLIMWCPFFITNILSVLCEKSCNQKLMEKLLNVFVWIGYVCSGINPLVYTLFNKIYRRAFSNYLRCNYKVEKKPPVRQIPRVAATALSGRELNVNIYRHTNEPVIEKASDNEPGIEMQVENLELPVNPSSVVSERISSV
Excerpt: as §1, §2
Experimental conditions for tests are given in Table 4, and results of tests for representative compounds of the invention are given in Table 5a and 5b (receptors 5-HT1A, 5-HT2A, 5-HT6 and 5-HT7) and in Table 6 (receptors 5-HT2C).

[2] = biological target: T3, serotonin transporter (SERT) (Homo sapiens, UniProt P31645); experiment: Radioligand binding assay, serotonin transporter (SERT); details: for inhibition at 1 µM / SERT [%]: binding assay, test compound 1×10^−6 M; for Ki: read-out: Inhibition constants Ki for SERT, SERT
T3 construct: expressed in transfected cells; host or cells: CHO cells
How it was run: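 Values are derived from competition curves fitted by the Hill equation to give IC50, then converted to Ki by Cheng-Prusoff with radioligand Kd from Scatchard analysis. Specific binding equals total minus non-specific (excess cold ligand), counted by scintillation, and is also expressed as percent inhibition of control.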

[3] = biological target: dopaminergic receptors D3 (Homo sapiens, UniProt P35462); experiment: Radioligand binding assay, dopaminergic D3 receptors; details: test compound 1×10^−6 M
How it was run: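 Scintillation read-out. Specific = total − nonspecific (excess cold ligand). Data as % of control specific binding / % inhibition; IC50 by Hill fit; Ki = IC50/(1+L/KD), KD from Scatchard plot.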

5-HT6 receptor = biological target: T4, 5-HT6 receptor (Homo sapiens, UniProt P50406); experiment: Radioligand binding assay, serotoninergic 5-HT6 receptors; details: for inhibition at 1 µM / 5-HT6 [%]: binding assay result in %, Table 5a; for Ki: read-out: Inhibition constants Ki, 5-HT6
T4 construct: purchased PerkinElmer
How it was run: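 Values are Ki from Cheng–Prusoff, taking IC50 from Hill nonlinear regression of competition curves and KD from a Scatchard plot. Specific binding was total minus binding with excess unlabelled ligand. Radioligand displacement was detected by scintillation counting, and data were also reported as percent of control specific binding.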

T3 sequence (P31645 whole entry): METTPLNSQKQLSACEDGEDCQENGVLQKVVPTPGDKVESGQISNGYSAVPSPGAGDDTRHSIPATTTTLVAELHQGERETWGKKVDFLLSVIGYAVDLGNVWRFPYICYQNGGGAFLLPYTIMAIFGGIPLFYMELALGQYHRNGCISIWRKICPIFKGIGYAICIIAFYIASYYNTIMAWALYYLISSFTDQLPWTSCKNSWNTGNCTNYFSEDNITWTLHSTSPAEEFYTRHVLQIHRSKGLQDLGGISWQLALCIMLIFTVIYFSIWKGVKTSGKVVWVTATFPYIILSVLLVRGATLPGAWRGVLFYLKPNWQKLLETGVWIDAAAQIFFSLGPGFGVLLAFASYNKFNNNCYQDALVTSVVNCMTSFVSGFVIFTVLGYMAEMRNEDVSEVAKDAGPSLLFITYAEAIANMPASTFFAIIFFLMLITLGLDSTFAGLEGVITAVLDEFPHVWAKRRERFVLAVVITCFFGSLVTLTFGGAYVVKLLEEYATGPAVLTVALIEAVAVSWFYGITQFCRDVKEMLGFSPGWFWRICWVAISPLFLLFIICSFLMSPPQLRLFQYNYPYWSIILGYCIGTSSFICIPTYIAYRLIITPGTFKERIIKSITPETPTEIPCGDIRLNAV
Sequence of dopaminergic receptors D2 (P14416 whole entry): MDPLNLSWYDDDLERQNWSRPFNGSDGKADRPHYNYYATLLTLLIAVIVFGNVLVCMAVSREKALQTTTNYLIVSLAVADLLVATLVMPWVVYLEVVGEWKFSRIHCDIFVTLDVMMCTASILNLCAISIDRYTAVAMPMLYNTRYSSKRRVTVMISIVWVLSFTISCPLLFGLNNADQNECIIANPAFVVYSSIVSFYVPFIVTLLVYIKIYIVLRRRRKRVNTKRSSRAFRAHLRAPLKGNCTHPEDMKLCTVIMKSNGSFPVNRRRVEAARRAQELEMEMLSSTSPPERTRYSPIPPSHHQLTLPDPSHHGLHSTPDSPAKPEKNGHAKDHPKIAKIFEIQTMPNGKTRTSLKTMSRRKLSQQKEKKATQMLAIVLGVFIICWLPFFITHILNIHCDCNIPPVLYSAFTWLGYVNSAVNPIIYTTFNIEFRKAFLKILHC
Sequence of dopaminergic receptors D3 (P35462 whole entry): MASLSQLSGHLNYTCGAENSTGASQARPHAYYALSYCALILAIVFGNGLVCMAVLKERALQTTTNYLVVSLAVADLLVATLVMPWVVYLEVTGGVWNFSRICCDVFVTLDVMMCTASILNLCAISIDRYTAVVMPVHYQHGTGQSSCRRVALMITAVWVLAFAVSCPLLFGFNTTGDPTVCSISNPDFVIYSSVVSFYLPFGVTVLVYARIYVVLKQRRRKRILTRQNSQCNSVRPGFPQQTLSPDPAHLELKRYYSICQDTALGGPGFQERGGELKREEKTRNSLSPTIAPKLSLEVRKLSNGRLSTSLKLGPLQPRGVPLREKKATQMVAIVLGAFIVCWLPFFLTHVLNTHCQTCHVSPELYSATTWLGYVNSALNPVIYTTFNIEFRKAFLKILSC
T4 sequence (P50406 whole entry): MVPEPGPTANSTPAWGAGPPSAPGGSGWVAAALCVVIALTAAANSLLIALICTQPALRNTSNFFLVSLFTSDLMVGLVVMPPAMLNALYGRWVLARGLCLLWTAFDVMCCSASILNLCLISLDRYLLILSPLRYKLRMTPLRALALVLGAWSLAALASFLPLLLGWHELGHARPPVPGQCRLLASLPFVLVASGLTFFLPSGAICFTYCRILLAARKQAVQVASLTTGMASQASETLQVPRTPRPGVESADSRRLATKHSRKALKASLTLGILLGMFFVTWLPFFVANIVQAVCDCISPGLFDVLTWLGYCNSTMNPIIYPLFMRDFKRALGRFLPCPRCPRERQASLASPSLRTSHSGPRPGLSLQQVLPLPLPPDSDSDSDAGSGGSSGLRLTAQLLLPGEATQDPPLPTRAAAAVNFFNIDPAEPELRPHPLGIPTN

| Structure (SMILES) | inhibition at 1 µM [1] | inhibition at 1 µM (α2C adrenergic receptors) | inhibition at 1 µM (5-HT2C receptor) | inhibition at 1 µM [2] | inhibition at 1 µM [3] | inhibition at 1 µM (5-HT6 receptor) | Ki [2] | Ki (5-HT6 receptor) | D2 [%] [1] | α2C [%] (α2C adrenergic receptors) | 5-HT2C [%] (5-HT2C receptor) | SERT [%] [2] | D3 [%] [3] | 5-HT6 [%] (5-HT6 receptor) | Ki [1] |
| --- | --- | --- | --- | --- | --- | --- | --- | --- | --- | --- | --- | --- | --- | --- | --- |
| O=S(=O)(NC1CN(CCOc2cccc3[nH]ccc23)C1)c1cccc(Cl)c1 [Compound 47, 3-Chloro-N-[1-[2-(1H-indol-4-yloxy)ethyl]azetidin-3-yl]benzene-sulphonamide] | 83% | 80% | 33% | 6% | 97% | 45% | – | – | – | – | – | – | – | – | – |
| Cc1cccc(S(=O)(=O)NC2CN(CCOc3cccc4[nH]ccc34)C2)c1 [Compound 48, N-[1-[2-(1H-Indol-4-yloxy)ethyl]azetidin-3-yl]-3-methyl-benzenesulphonamide] | 84% | 105% | 32% | -3% | 104% | 17% | – | – | – | – | – | – | – | – | – |
| O=S(=O)(NC1CCN(CCCc2c[nH]c3ccc(F)cc23)C1)c1ccc(F)cc1 (centres unmarked) [Compound 75, 4-Fluoro-N-[1-[3-(5-fluoro-1H-indol-3-yl)propyl]pyrrolidin-3-yl]benzene-sulphonamide] | 91% | 76% | 83% | 103% | 86% | 94% | 0.0015 µM | 0.034 µM | – | – | – | – | – | – | – |
| O=S(=O)(NC1CCN(CCCc2c[nH]c3ccc(F)cc23)C1)c1ccc(Cl)cc1 (centres unmarked) [Compound 77, 4-Chloro-N-[1-[3-(5-fluoro-1H-indol-3-yl)propyl]pyrrolidin-3-yl]-benzenesulphonamide] | 93% | 78% | 77% | 104% | 93% | 95% | 0.0005 µM | 0.039 µM | – | – | – | – | – | – | – |
| Cc1cccc(S(=O)(=O)NC2CCN(CCCc3c[nH]c4ccc(F)cc34)C2)c1 (centres unmarked) [Compound 78, N-[1-[3-(5-Fluoro-1H-indol-3-yl)propyl]pyrrolidin-3-yl]-3-methyl-benzenesulphonamide] | 89% | 85% | 78% | 101% | 98% | 94% | 0.001 µM | 0.042 µM | – | – | – | – | – | – | – |
| O=S(=O)(NC1CCN(CCCc2c[nH]c3ccc(Cl)cc23)C1)c1cccc(F)c1 (centres unmarked) [Compound 82, N-[1-[3-(5-Chloro-1H-indol-3-yl)propyl]pyrrolidin-3-yl]-3-fluoro-benzene-sulphonamide] | 90% | 101% | 82% | 100% | 94% | 93% | 0.0013 µM | 0.037 µM | – | – | – | – | – | – | – |
| O=S(=O)(NC1CCN(CCCc2c[nH]c3ccc(Cl)cc23)C1)c1cccc(Cl)c1 (centres unmarked) [Compound 84, 3-Chloro-N-[1-[3-(5-chloro-1H-indol-3-yl)propyl]pyrrolidin-3-yl]benzenesulphonamide] | 89% | 105% | 88% | 104% | 99% | 96% | 0.0026 µM | 0.018 µM | – | – | – | – | – | – | – |
| O=S(=O)(NC1CN(CCOc2cccc3c2OCCO3)C1)c1cccc(F)c1 [Compound 89, N-[1-[2-(2,3-Dihydro-1,4-benzodioxan-8-yloxy)ethyl]azetidin-3-yl]-3-fluoro-benzenesulphonamide] | – | – | – | – | – | – | – | – | 24% | 69% | 53% | 3% | 23% | 19% | – |
| CC1(C)Cc2cccc(OCCN3CCC(NS(=O)(=O)c4ccc5ccccc5c4)CC3)c2O1 [Compound 110, N-[1-[2-[(2,2-Dimethyl-3H-benzofuran-7-yl)oxy]ethyl]-4-piperidine]naphthalene-2-sulphonamide] | – | – | – | – | – | – | – | – | 74% | 98% | 85% | 39% | 73% | −60% | – |
| O=S(=O)(NCC1CN(CCCc2noc3cc(F)ccc23)C1)c1cc2ccccc2s1 [Compound 127, N-[[1-[3-(6-Fluoro-1,2-benzoxazol-3-yl)propyl]azetidin-3-yl]methyl]benzo-thiophene-2-sulphonamide] | – | 93% | 84% | – | – | – | – | 0.018 µM | 95% | – | – | 49% | 79% | 96% | 0.022 µM |
| O=S(=O)(NCC1CN(CCCc2noc3cc(F)ccc23)C1)c1ccc(-c2ccccc2)cc1 [Compound 135, N-[[1-[3-(6-Fluoro-1,2-benzoxazol-3-yl)propyl]azetidin-3-yl]methyl]-4-phenyl-benzenesulphonamide] | 92% | 95% | 86% | 68% | 94% | 92% | – | – | – | – | – | – | – | – | – |
| COc1cccc(S(=O)(=O)NCC2CN(CCCc3noc4cc(F)ccc34)C2)c1 [Compound 143, N-[[1-[3-(6-Fluoro-1,2-benzoxazol-3-yl)propyl]azetidin-3-yl]methyl]-3-methoxy-benzenesulphonamide] | 80% | 78% | 68% | 6% | 46% | 78% | – | – | – | – | – | – | – | – | – |
| O=S(=O)(NCC1CN(CCOc2cccc3c2OCCO3)C1)c1cc2ccccc2o1 [Compound 186, N-[[1-[2-(2,3-Dihydro-1,4-benzodioxin-5-yloxy)ethyl]azetidin-3-yl]methyl]-benzofuran-2-sulphonamide] | 77% | 96% | 79% | 39% | 78% | 32% | – | – | – | – | – | – | – | – | – |
| O=S(=O)(N[C@H]1CCN(CCCc2noc3cc(F)ccc23)C1)c1ccc2cc(Cl)ccc2c1 [Compound 201, 6-Chloro-N-[(3S)-1-[3-(6-fluoro-1,2-benzoxazol-3-yl)propyl]pyrrolidin-3-yl]naphthalene-2-sulphonamide] | 99% | 89% | 72% | 59% | 84% | 94% | – | 0.079 µM | – | – | – | – | – | – | 0.015 µM |
